Read-outs that look alike come from different tables or passages of the source. Residues, ends and D or L forms follow the SMILES beside them. *: point of attachment. Doxorubicin(3'-N) = COc1cccc2c1C(=O)c1c(O)c3c(c(O)c1C2=O)C[C@@](O)(C(=O)CO)C[C@@H]3O[C@H]1C[C@H](N*)[C@H](O)[C@H](C)O1; X1 = CN(CCNC(=O)c1cc(Oc2ccc(NC(=O)Nc3ccc(Cl)c(C(F)(F)F)c3)cc2)ccn1)*; Hexanoyl(6-maleimido) = O=C1C=CC(=O)N1CCCCCC(=O)*
Columns and labels:
D121 lung cancer cells = assay: D121 lung cancer immunotherapy model; conditions: for Tumor inhibition rate/% (week 7) / CD8: CD45 (%): single agent; for Tumor inhibition rate/% (week 7): i.v. ⅙ MTD once a week for 4 weeks; for CD8: CD45 (%): tumor CD8+ T cells among CD45-positive cells
Method: (1) D121 lung cancer cells purchased from ATCC were cultured in DMEM medium containing 10% fetal bovine serum at 37° C. and 5% CO2, and the cells were digested with EDTA trypsin according to routine use, and passed two to three times a week for placement.
(2) Animals: C57 BALB/C mice, 6-8 weeks old, female, weighing about 18-22 g, purchased from Shanghai SLAC Laboratory Animal Co., Ltd.
3) Immunization: Mice were intraperitoneally injected with 100 μL of 5×10^5 D121 lung cancer cells that died by repeated freeze-thaw cycles, and immunized 3 times with an interval of 2 weeks.
4) Cell seeding: Collect the tumor cells in logarithmic growth phase, adjust the D121 cell concentration to (1×10^7/ml) with DMEM basal medium, 0.1 ml of the cell suspension was inoculated to the right side of each mouse subcutaneously with a 1 ml syringe. […] Tumor volume was observed and measured, and the average tumor volume reached 100-200 mm^3 about 7 days after inoculation, that is, tumor cell-bearing mice were grouped and administered. The immunized group in Table 9 was immunized with D121 lung cancer cells, and the D121 dead tumor cell immunized group was injected with physiological saline as a control.
The immunosuppressive regulatory point protein Anti-PD-L1 antibody was injected twice a week. A total of two weeks.
6) Experimental observation: During the whole experiment, the use and observation of experimental animals were carried out in accordance with the regulations of AAALAC. The experimental animals were observed daily after inoculation of tumor cells, and their onset and death were recorded. During the routine experiment, all experimental animals were monitored and recorded for behavior, feeding, water intake, weight change, hair shine and other abnormalities.
(7) Analysis of tumor CD8+ T cells (T lymphocyte subsets). Tumor tissues were ground and single cancer cells were isolated by filtration using 40 μm Nylon cell strainer, lysed twice with blood cell lysis buffer for 20 min, washed twice with 1% BSA-PBS buffer, centrifuged, and resuspended, and then the cells were counted again. 1×10^5 cells were incubated with leukocyte co-antigen CD45-PE and CD8-FITC-labeled antibody for 1 hour at room temperature in the dark, and then analyzed the proportion of T lymphocyte antigen (CD8) in leukocyte common antigen (CD45)-positive cells by flow cytometry.

CT26 tumor cells [1] = assay: CT26 treatment model (Example 17); type: in vivo, mice; conditions: CT26 model as in Example 15
Method: (§1) 1) CT26 tumor cells were purchased from ATCC, and the cells were cultured using a 10% fetal bovine serum DMEM medium at 37° C., 5% CO2. The cells were passaged every 3 days and the cells were used within 15 generations.
(§2) 2) Tumor production: 10^6 live CT26 tumor cells were injected subcutaneously into the back of tumor-immunized […], and treatment was started when the tumor grew to about 0.3-0.4 cm. The tumor size (mm^3) of the mice was recorded and compared with the solvent control group. The tumor inhibition rate on day 42 was calculated in the solvent control group.
(§3) 3) Treatment process: IV injection is used, and the drug is used at a dose of ⅓ MTD once a week Immunosuppressive IV injection treatment once a week for a total of 6 weeks of treatment.
(§4) 4) The cure rate of 10 in each group was counted. After 50 days, the cured mice and wild groups were inoculated […] to detect recurrence.
The CT26 immunotherapy model was constructed as in Example 15, and the pharmacodynamic and immunotherapeutic effects of the compounds S4-S6, S9-S12 and S15-S18 in the CT26 treatment model were tested.

BALB/C mouse = assay: MTD (maximum tolerated dose) acute toxicity in mice; type: in vivo; conditions: intravenous; for Number of deaths: 10 mice per group; for Death dose: observed 17 days
From the text: (§5) Test purpose: to investigate the acute toxicity of highly activated compounds by targeted site molecules of the invention by measuring the MTD (maximum tolerated dose) experiment in mice.
(§6) The injections of each drug and the control drug were uniformly dissolved using water for injection, and diluted to the corresponding dose with physiological saline during the test.
(§7) Methods and results: […] BALB/C mice, weighing 19-21 g, were randomly divided into 10 groups, with 10 mice in each group. […] A control test of the saline group and the adriamycin group injection (commercially available, Beijing Yue kang) was carried out, and the injection volume of each mouse was 0.2 ml. […] On the D3, D5, and D14, blood samples were taken for whole blood count.

CT26 tumor cells [2] = assay: CT26 immunotherapy model (Example 15); type: in vivo, mice
Method: as §1, §2, §3, §4

[3] = MTD (maximum tolerated dose) acute toxicity in mice; type: in vivo, mouse; conditions: mouse, in vivo, BALB/C mice, intravenous, observed 17 days; for MTD at 17 days: female
From the text: as §5, §6, §7

[4] = Solid stability, 60° C. for 10 days in the dark (HPLC); type: physicochemical
Method: The test was carried out by leaving it at 60° C. for 10 days in the dark. The ratio of the change in the content of the compound to the compound at time 0 was measured by HPLC, and the stability value (%) was calculated.

[5] = solid, 60° C., 10 days, dark, content versus time 0

Structure (SMILES) | effect on T cells (D121 lung cancer cells; flow cytometry, discussion of Table 6) | Tumor inhibition rate/% (week 7) (D121 lung cancer cells) [%] | CD8: CD45 (%) (D121 lung cancer cells; flow cytometry) | CD8: CD45 (%) (CT26 tumor cells [1]) | Number of animals cured (CT26 tumor cells [1]) | Tumor inhibition rate/% (at week 7) (CT26 tumor cells [1]) [%] | Number of deaths (BALB/C mouse) | Death dose (BALB/C mouse) [mg/kg] | Cure rate % (CT26 tumor cells [2]; 10 in each group) [%] | Number of cures (CT26 tumor cells [2]; 10 in each group) | Tumor inhibition rate % (Day 42) (CT26 tumor cells [2]; IV ⅓ MTD once a week, 6 weeks) [%] | MTD at 17 days [3] [mg/kg] | Stability verdict (stable / unstable) ([4]; solid, 60° C., 10 days, dark) | Stability(%) [4, 5] [%] | Stability verdict (stable / unstable) [4] | Stability(%) [4] | Recurrence rate/% (at week 10) (CT26 tumor cells [1]) [%] | MTD [3] [mg/kg]
COc1cccc2c1C(=O)c1c(O)c3c(c(O)c1C2=O)C[C@@](O)(C(=O)CO)C[C@@H]3O[C@H]1C[C@H](N)[C@H](O)[C@H](C)O1 [Adriamycin, reference compound] | inhibited T cells | 14.6 | 5.4 | 6.4 | 0 | 14.6 | 3 | 10 | 0 | 0 | 24.5 | – | – | – | – | – | – | –
CC(C)C[C@H](NC(=O)[C@H](CC(N)=O)NC(=O)[C@H](C)NC(=O)[C@H](C)N)C(=O)N(C)CCNC(=O)c1cc(Oc2ccc(NC(=O)Nc3ccc(Cl)c(C(F)(F)F)c3)cc2)ccn1 [Compound C1, AANL-Compound a, reference compound] (H-AANL-X1) | – | – | – | – | – | – | 1 | 80 | – | – | – | 65 | stable | 96.8 | – | – | – | –
C[C@H](N)C(=O)N[C@@H](C)C(=O)N[C@@H](CC(N)=O)C(=O)Nc1ccc(COC(=O)N(C)CCNC(=O)c2cc(Oc3ccc(NC(=O)Nc4ccc(Cl)c(C(F)(F)F)c4)cc3)ccn2)cc1 [Compound C2, AAN-PABC-Compound a, reference compound] | – | – | – | – | – | – | 2 | 70 | – | – | – | 60 | unstable | 89.4 | – | – | – | –
COc1cccc2c1C(=O)c1c(O)c3c(c(O)c1C2=O)C[C@@](O)(C(=O)CO)C[C@@H]3O[C@H]1C[C@H](NC(=O)[C@H](CC(C)C)NC(=O)[C@H](CC(N)=O)NC(=O)[C@H](C)NC(=O)[C@H](C)NC(=O)CCCCCN2C(=O)C=CC2=O)[C@H](O)[C@H](C)O1 [Compound C11, EMC-AANL-Adriamycin, reference compound] ({Hexanoyl(6-maleimido)}-AANL-{Doxorubicin(3'-N)}) | – | – | – | – | – | – | 2 | 120 | – | – | – | 110 | – | – | 96.5, stable | 96.5, stable % | – | –
CC(NC(=O)C(C)NC(=O)[C@H](O)[C@H](O)[C@@H](O[C@@H]1O[C@H](CO)[C@H](O)[C@H](O)[C@H]1O)[C@H](O)CO)C(=O)NC(CC(N)=O)C(=O)Nc1ccc(COC(=O)Nc2nccc(-c3sc(C(C)(C)C)nc3-c3cccc(NS(=O)(=O)c4c(F)cccc4F)c3F)n2)cc1 (stereo partly shown) [Compound S4] | – | 70.7 | 15.8 | 11.9 | 2 | 58.9 | 2 | 300 | – | – | – | 280 | – | – | – | – | 0 | –
CC(NC(=O)C(C)NC(=O)[C@H](O)[C@H](O)[C@@H](O[C@@H]1O[C@H](CO)[C@H](O)[C@H](O)[C@H]1O)[C@H](O)CO)C(=O)NC(CC(N)=O)C(=O)Nc1ccc(COC(=O)Nc2c(-c3nc4ccc(N5CCN(C)CC5)cc4[nH]3)c(=O)[nH]c3cccc(F)c23)cc1 (stereo partly shown) [Compound S5] | – | 76.7 | 15.3 | 11.5 | 1 | 60.1 | 2 | 320 | – | – | – | 310 | – | – | – | – | 0 | –
COc1cccc2c1C(=O)c1c(O)c3c(c(O)c1C2=O)C[C@](O)(C(=O)CO)CC3OC1C[C@H](NC(=O)OCc2ccc(NC(=O)C(CC(N)=O)NC(=O)C(C)NC(=O)C(NC(=O)[C@H](O)[C@H](O)[C@@H](O[C@@H]3O[C@H](CO)[C@H](O)[C@H](O)[C@H]3O)[C@H](O)CO)C(C)C)cc2)[C@H](O)[C@H](C)O1 (stereo partly shown) [Compound S9] | – | – | – | 13.8 | 3 | 66.7 | 2 | 120 | – | – | – | 100 | – | – | – | – | 0 | –
CC(NC(=O)C(NC(=O)[C@H](O)[C@H](O)[C@@H](O[C@@H]1O[C@H](CO)[C@H](O)[C@H](O)[C@H]1O)[C@H](O)CO)C(C)C)C(=O)NC(CC(N)=O)C(=O)Nc1ccc(COC(=O)Nc2nccc(-c3sc(C(C)(C)C)nc3-c3cccc(NS(=O)(=O)c4c(F)cccc4F)c3F)n2)cc1 (stereo partly shown) [Compound S10] | – | – | – | 15.9 | 2 | 76.7 | 1 | 320 | – | – | – | 310 | – | – | – | – | 0 | –
CC(NC(=O)C(NC(=O)[C@H](O)[C@H](O)[C@@H](O[C@@H]1O[C@H](CO)[C@H](O)[C@H](O)[C@H]1O)[C@H](O)CO)C(C)C)C(=O)NC(CC(N)=O)C(=O)Nc1ccc(COC(=O)Nc2c(-c3nc4ccc(N5CCN(C)CC5)cc4[nH]3)c(=O)[nH]c3cccc(F)c23)cc1 (stereo partly shown) [Compound S11] | – | – | – | 15.1 | 2 | 69.3 | 2 | 330 | – | – | – | 300 | – | – | – | – | 0 | –
CC(NC(=O)C(NC(=O)[C@H](O)[C@H](O)[C@@H](O[C@@H]1O[C@H](CO)[C@H](O)[C@H](O)[C@H]1O)[C@H](O)CO)C(C)C)C(=O)NC(CC(N)=O)C(=O)Nc1ccc(COC(=O)N2CC(C)(C)c3ccc(NC(=O)c4cccnc4NCc4ccncc4)cc32)cc1 (stereo partly shown) [Compound S12] | – | – | – | 10.8 | 1 | 55.5 | 1 | 300 | – | – | – | 290 | – | – | – | – | 0 | –
COc1cccc2c1C(=O)c1c(O)c3c(c(O)c1C2=O)C[C@](O)(C(=O)CO)CC3OC1C[C@H](NC(=O)OCc2ccc(NC(=O)C(CC(N)=O)NC(=O)C(C)NC(=O)C(NC(=O)[C@H](O)[C@H](O)[C@@H](O[C@@H]3O[C@H](CO)[C@H](O)[C@H](O)[C@H]3O)[C@H](O)CO)C(C)O)cc2)[C@H](O)[C@H](C)O1 (stereo partly shown) [Compound S15] | – | – | – | 15.3 | 1 | 70.2 | 1 | 100 | – | – | – | 90 | – | – | – | – | 0 | –
C[C@H](NC(=O)[C@@H](NC(=O)[C@H](O)[C@@H](O)[C@H](O[C@@H]1O[C@H](CO)[C@H](O)[C@H](O)[C@H]1O)[C@H](O)CO)[C@@H](C)O)C(=O)N[C@@H](CC(N)=O)C(=O)Nc1ccc(COC(=O)Nc2nccc(-c3sc(C(C)(C)C)nc3-c3cccc(NS(=O)(=O)c4c(F)cccc4F)c3F)n2)cc1 [Compound S16] | – | – | – | 15.5 | 2 | 71.6 | 2 | 300 | – | – | – | – | – | – | – | – | 0 | 290
CC(NC(=O)C(NC(=O)[C@H](O)[C@H](O)[C@@H](O[C@@H]1O[C@H](CO)[C@H](O)[C@H](O)[C@H]1O)[C@H](O)CO)C(C)O)C(=O)NC(CC(N)=O)C(=O)Nc1ccc(COC(=O)Nc2c(-c3nc4ccc(N5CCN(C)CC5)cc4[nH]3)c(=O)[nH]c3cccc(F)c23)cc1 (stereo partly shown) [Compound S17] | – | – | – | 16.2 | 1 | 70.9 | 1 | 310 | – | – | – | 290 | – | – | – | – | 0 | –
CC(NC(=O)C(NC(=O)[C@H](O)[C@H](O)[C@@H](O[C@@H]1O[C@H](CO)[C@H](O)[C@H](O)[C@H]1O)[C@H](O)CO)C(C)O)C(=O)NC(CC(N)=O)C(=O)Nc1ccc(COC(=O)N2CC(C)(C)c3ccc(NC(=O)c4cccnc4NCc4ccncc4)cc32)cc1 (stereo partly shown) [Compound S18] | – | – | – | 15.6 | 2 | 71.7 | 2 | 290 | – | – | – | 280 | – | – | – | – | 0 | –

— patent US11078232B2, “Preparation and use of molecular site targeted and activated kinase inhibitor” (Yafei Shanghai Biology Medicine Science & Technology Co. …, priority 2017, dated 2021)
